In patent publication US10952974B2, “Delivery of bioactive, nanoencapsulated antioxidants” (Board of Supervisors of Louisiana State University and …, priority 2014, dated 2021):
≈ marks a conversion by molar mass, not a printed value. Like-named read-outs stand apart in the source and are kept apart here.

Legend:
[1] = cited from earlier work
[2] = Solubility of lutein in water and organic solvents; type: physicochemical; conditions: chloroform vs ethanol
[3] = system: selenite-induced cataract; test: Selenite-induced cataract in rat pups, first animal study; type: in vivo, Wistar albino rat
Protocol: Four pregnant Wistar female albino rats were obtained from the Laboratory Animal Facility of the Iuliu Hatieganu University of Medicine and Pharmacy in Cluj-Napoca, Romania. Each female rat and its litter of pups were housed in plastic cages, on a 12 h lighting cycle, at constant temperature (22° C.) with free access to rat chow and tap water. At 12 days of age, the rat pups were randomized into seven groups as follows:
Group 1 (selenite group, positive control): no exposure to lutein
Group 2 (PLGA-NP-1) daily received orally, by gavage, 2.5 mg/kg PLGA-NP-lutein dispersed in a 0.5 mL emulsion of 30% olive oil+70% flour slurry, corresponding to a daily dose of 2.66 mg lutein/kg body mass. (The flour slurry, in turn, had been prepared by mixing 0.3 g flour in 1 ml water.)
Group 3 (PLGA-NP-2) daily received orally, by gavage, 5 mg/kg PLGA-NP-lutein dispersed in 0.5 mL emulsion of 30% olive oil+70% flour slurry, corresponding to a daily dose of 5.32 mg lutein/kg body mass. (Flour slurry: identical to that used for Group 2
Group 4 (lutein) daily received orally, by gavage, 0.00525 mg unmodified lutein dispersed in 0.5 mL emulsion of 30% olive oil+70% flour slurry, corresponding to a daily dose of 0.125 mg lutein/kg body mass. (Flour slurry: identical to that used for Group 2.)
Group 5 (HG-PLGA-NP-1) was treated locally, once a day, with corneal application (1 drop in each eye) of 1 wt % PLGA-NP-lutein in the bioadhesive hydrogel of Example 19. (30 mg of lyophilized lutein-loaded PLGA NPs were dissolved in 3 ml of bioadhesive hydrogel. The volume of one drop of hydrogel was approx. 0.012 mL, with a density of 0.9444 g/mL.)
Group 6 (HG-PLGA-NP-2) was treated locally, once a day, by corneal application (1 drop/in each eye) with 3% PLGA-NP-lutein in a bioadhesive hydrogel. (90 mg of lyophilized lutein-loaded PLGA NPs were dissolved in 3 ml of bioadhesive hydrogel. The volume of one drop of hydrogel was approx. 0.012 mL, with a density of 0.9444 g/mL.)
Group 7 (negative control)—no exposure to selenite, and no lutein treatment.
On day 13 post-partum, cataracts were induced in all animals in Groups 1-6 with a single, intraperitoneal injection of sodium selenite (Na2SeO3), 30 μmol/kg. Subsequently, the animals from groups 2-6 were treated daily, in accordance with the protocols described above. The lutein content of the PLGA-NPs (42.61 μg lutein/mg PLGA-NP) was assessed by UV-VIS spectrophotometry (450 nm) with an external standard calibration. On day 21 post-partum, cataract development was evaluated by slit-lamp examination. Eyes were scored into one of five stages: stage 0 (no cataract), stage 1 (slight nucleus opacity), stage 2 (mild nucleus opacity, a central while opacity occupying less than half the diameter of the nucleus), stage 3 (dense opacity, a central while opacity occupying more than half the diameter of the nucleus) and stage 4 (dense, white opacity over the whole nucleus). Statistics were performed in SPSS 14.0 for Windows and Excel. The variables were checked for normal distribution with the Shapiro-Wilk test. Groups were compared with the Wilcoxon test. Statistical significance was set at p<0.05.

[4] = cited from earlier work; remark: listed apart in the source
[5] = oral gavage daily, 0.125 mg lutein/kg, day 21 postpartum

Question: With CC1=C[C@H](O)CC(C)(C)[C@H]1/C=C/C(C)=C/C=C/C(C)=C/C=C/C=C(C)/C=C/C=C(C)/C=C/C1=C(C)C[C@@H](O)CC1(C)C [Lutein, β,ε-carotene-3,3′-diol] as the molecule, how does the Solubility ([1]; in 2-Propanol) read?
Answer: The Solubility was 400 µg/mL (≈ 703 µM).

Question: And the Solubility ([1]; in Acetone)?
Answer: The Solubility was 800 µg/mL (≈ 1410 µM).

Question: What about the Solubility ([1]; in Acetonitrile) of the same molecule?
Answer: The Solubility was 100 µg/mL (≈ 176 µM).

Question: And the Solubility ([1]; in Benzene)?
Answer: Its Solubility is 600 µg/mL (≈ 1050 µM).

Question: And the Solubility ([1]; in Chloroform)?
Answer: Its Solubility is 6000 µg/mL (≈ 10500 µM).

Question: And the Solubility ([1]; in Cyclohexane)?
Answer: Its Solubility is 50 µg/mL (≈ 87.9 µM).

Question: What about the Solubility ([1]; in Cyclohexanone) of the same molecule?
Answer: Its Solubility is 4000 µg/mL (≈ 7030 µM).

Question: And the Solubility ([1]; in Dimethyl formamide)?
Answer: Its Solubility is 1000 µg/mL (≈ 1760 µM).

Question: What about the Solubility ([1]; in Ethyl acetate) of the same molecule?
Answer: Its Solubility is 800 µg/mL (≈ 1410 µM).

Question: And the Solubility ([1]; in Ethyl alcohol)?
Answer: Its Solubility is 300 µg/mL (≈ 527 µM).

Question: And the Solubility ([1]; in Ethyl ether)?
Answer: The Solubility was 2000 µg/mL (≈ 3520 µM).

Question: And the Solubility ([1]; in Hexane)?
Answer: The Solubility was 20 µg/mL (≈ 35.2 µM).

Question: What about the Solubility ([1]; in Methyl alcohol) of the same molecule?
Answer: The Solubility was 200 µg/mL (≈ 352 µM).

Question: What about the Solubility ([1]; in Methyl tert butyl ether) of the same molecule?
Answer: Its Solubility is 2000 µg/mL (≈ 3520 µM).

Question: What about the Solubility ([1]; in Tetrahydrofuran) of the same molecule?
Answer: Its Solubility is 8000 µg/mL (≈ 14100 µM).

Question: What about the Solubility ([1]; in Toluene) of the same molecule?
Answer: Its Solubility is 500 µg/mL (≈ 879 µM).

Question: And the Solubility in water [1]?
Answer: Its Solubility in water is “Insoluble”.

Question: And the Solubility in water ([1]; listed as lutein)?
Answer: Its Solubility in water is “water-insoluble”.

Question: And the “solubility in chloroform relative to solubility in ethanol” value [2]?
Answer: The value was 20 times.

Question: What about the “Cataract stage Mean ± SD” value [3, 5] of the same molecule?
Answer: Its value is 3.2 ± 0.8.

Question: And the “Stage 0” value [3, 5]?
Answer: Its value is 0 no. animals.

Question: And the “Stage 1” value [3, 5]?
Answer: Its value is 0 no. animals.

Question: What about the “Stage 2” value [3, 5] of the same molecule?
Answer: Its value is 1 no. animals.

Question: And the “Stage 3” value [3, 5]?
Answer: Its value is 2 no. animals.

Question: What about the “Stage 4” value [3, 5] of the same molecule?
Answer: The value was 2 no. animals.

Question: And the “reduction in cataract development vs selenite group” value ([3]; treated orally)?
Answer: The value was “small (and statistically insignificant) reduction in cataract development”.

Question: What about the Stability ([4]; stored at −20° C. under a nitrogen atmosphere) of the same molecule?
Answer: The Stability was “Stable if stored at −20 °C under a nitrogen”.

Question: What about the Stability ([4]; to light and oxygen) of the same molecule?
Answer: Its Stability is “Unstable to light and oxygen;”.
